Experimental data: patent publication US9447100B2, “Substituted pyrazolo[1,5-A] pyrimidines as calcium receptor modulating agents” (Takeda Pharmaceutical Company Limited, priority 2002, dated 2016)
Counter-ions that a name gives are not always drawn.

melting point [°C] | SMILES
181 to 182 | Cc1ccc(C2CC(C)(C)n3nc(C)c(C(=O)O)c3N2)cc1 (stereo not shown) [Example 949, 2,7,7-trimethyl-5-(4-methylphenyl)-4,5,6,7-tetrahydropyrazolo[1,5-a]pyrimidine-3-carboxylic acid]
155 to 156 | C=Cc1ccc(C(CC)(CC)NC(=O)c2cnn3c2NC(c2ccccc2)CC3(C)C)cc1 (stereo not shown) [Example 645, N-(1-ethyl-1-(4-vinylphenyl)propyl)-7,7-dimethyl-5-phenyl-4,5,6,7-tetrahydropyrazolo[1,5-a]pyrimidine-3-carboxamide]
249 to 251 | CCC1(CC)C[C@H](O)CN1C(=O)c1cnn2c1N[C@@H](c1ccccc1)CC2(C)C [Example 1117, (3S)-1-(((5R)-7,7-dimethyl-5-phenyl-4,5,6,7-tetrahydropyrazolo[1,5-a]pyrimidin-3-yl)carbonyl)-5,5-diethyl-3-pyrrolidinol]
236 to 237 | O=C(NC1(C(=O)O)CCCCC1)c1cnn2c1N[C@H](c1ccccc1)C[C@@H]2C(F)(F)F (stereo in doubt) [Example 369, 1-(((5-phenyl-7-(trifluoromethyl)-4,5,6,7-tetrahydropyrazolo[1,5-a]pyrimidin-3-yl)carbonyl)amino)cyclohexane carboxylic acid]
137 to 138 | CCC(CC)(NC(=O)c1cnn2c1NC(c1ccccc1)CC2(C)C)c1ccc(C)c(C)c1 (stereo not shown) (as salt: HCl) [Example 769, N-(1-(3,4-dimethylphenyl)-1-ethylpropyl)-7,7-dimethyl-5-phenyl-4,5,6,7-tetrahydropyrazolo[1,5-a]pyrimidine-3-carboxamide]
146 to 148 | Cc1cccc(C2CC(C)(C)n3nc(C)c(C(=O)O)c3N2)c1 (stereo not shown) [Example 946, 2,7,7-trimethyl-5-(3-methylphenyl)-4,5,6,7-tetrahydropyrazolo[1,5-a]pyrimidine-3-carboxylic acid]
211 to 213 | CCC(CC)(NC(=O)c1cnn2c1NC(c1ccccc1OC)CC2(C)C)c1ccc(C(F)(F)F)cc1 (stereo not shown) [Example 590, N-(1-ethyl-1-(4-(trifluoromethyl)phenyl)propyl)-5-(2-methoxyphenyl)-7,7-dimethyl-4,5,6,7-tetrahydropyrazolo[1,5-a]pyrimidine-3-carboxamide]
132 to 134 | CCC1(CC)C[C@@H](OC)CN1C(=O)c1c(C)nn2c1N[C@@H](c1ccccc1)CC2(C)C [Example 1099, (5R)-3-(((4R)-2,2-diethyl-4-methoxy-1-pyrralidinyl)carbanyl)-2,7,7-trimethyl-5-phenyl-4,5,6,7-tetrahydropyrazolo[1,5-a]pyrimidine]
122 to 124 | CCC(CC)(NC(=O)c1cnn2c1NC(c1ccccc1O)CC2(C)C)c1ccc(C(F)(F)F)cc1 (stereo not shown) [Example 629, N-(1-ethyl-1-(4-(trifluoro-methyl)phenyl)propyl)-5-(2-hydroxyphenyl)-7,7-dimethyl-4,5,6,7-tetrahydropyrazolo[1,5-a]pyrimidine-3-carboxamide]
129 to 130 | CCC(CC)(NC(=O)c1cnn2c1NC(c1ccccc1)CC2(C)C)c1ccc(Br)cc1 (stereo not shown) [Example 413, N-(1-(4-bromophenyl)-1-ethylpropyl)-7,7-dimethyl-5-phenyl-4,5,6,7-tetrahydropyrazolo[1,5-a]pyrimidine-3-carboxamide]
213 to 214 | COC(=O)C1(NC(=O)c2cnn3c2N[C@H](c2ccccc2)C[C@@H]3C(F)(F)F)CCCCC1 (stereo in doubt) [Example 367, methyl 1-(((5-phenyl-7-(trifluoromethyl)-4,5,6,7-tetrahydropyrazolo[1,5-a]pyrimidin-3-yl)carbonyl)amino)cyclohexane carboxylate]
277 to 278 | NC(=O)c1cnn2c1N[C@H](c1ccccc1)C[C@@H]2C(F)(F)F (stereo in doubt) [Example 403, 5-phenyl-7-(trifluoromethyl)-4,5,6,7-tetrahydropyrazolo[1,5-a]pyrimidine-3-carboxamide]
129 to 130 | CCC(CC)(CCOC)NC(=O)c1cnn2c1NC(c1ccccc1)CC2(C)C (stereo not shown) [Example 664, N-(1,1-diethyl-3-methoxypropyl)-7,7-dimethyl-5-phenyl-4,5,6,7-tetrahydropyrazolo[1,5-a]pyrimidine-3-carboxamide]
147 to 148 | CCC(CC)(NC(=O)c1cnn2c1NC(c1ccccc1)CC2(C)C)c1ccc(CCC(=O)OC)cc1 (stereo not shown) [Example 748, methyl 3-(4-(1-(((7,7-dimethyl-5-phenyl-4,5,6,7-tetrahydropyrazolo[1,5-a]pyrimidin-3-yl)carbonyl)amino)-1-ethyl-propyl)phenyl)propanoate]
234 to 236 | CCC(CC)(NC(=O)c1c(C)nn2c1N[C@@H](c1ccccc1)CC2(C)C)c1ccc(C(=O)O)cc1 [Example 1076, (5R)-4-(1-ethyl-1-(((-2,7,7-trimethyl-5-phenyl-4,5,6,7-tetrahydropyrazolo[1,5-a]pyrimidin-3-yl)carbonyl)amino)propyl) benzoic acid]
205 to 206 | O=C(NCc1ccc(-c2csnn2)cc1)c1cnn2c1NC(c1ccccc1)CC2C(F)(F)F (stereo not shown) [Example 278, 5-phenyl-N-(4-(1,2,3-thiadiazol-4-yl)benzyl)-7-(trifluoromethyl)-4,5,6,7-tetrahydropyrazolo[1,5-a]pyrimidine-3-carboxamide]
146 to 147 | CC1(C)CC(c2ccccc2)Nc2c(C(=O)NC(c3ccc(C(F)(F)F)cc3)(C3CCCCC3)C3CCCCC3)cnn21 (stereo not shown) [Example 412, N-(dicyclohexyl(4-(trifluoromethyl)phenyl)methyl)-7,7-dimethyl-5-phenyl-4,5,6,7-tetrahydropyrazolo[1,5-a]pyrimidine-3-carboxamide]
168 to 169 | CCC(CC)(NC(=O)c1cnn2c1NC(c1ccccc1)CC2(C)C)c1ccc(-c2cccnc2)cc1 (stereo not shown) (as salt: HCl) [Example 583, N-(1-ethyl-1-(4-(3-pyridinyl)phenyl)propyl)-7,7-dimethyl-5-phenyl-4,5,6,7-tetrahydropyrazolo[1,5-a]pyrimidine-3-carboxamide]
115 to 117 | CCC(CC)(NC(=O)c1c(SC)nn2c1NC(c1ccccc1)CC2(C)C)c1ccc(Cl)cc1 (stereo not shown) (as salt: HCl) [Example 780, N-(1-(4-chlorophenyl)-1-ethylpropyl)-7,7-dimethyl-2-(methylthio)-5-phenyl-4,5,6,7-tetrahydropyrazolo[1,5-a]pyrimidine-3-carboxamide]
143 to 144 | CCCCOC(=O)CCc1ccc(C(CC)(CC)NC(=O)c2cnn3c2NC(c2ccccc2)CC3(C)C)cc1 (stereo not shown) (as salt: HCl) [Example 815, butyl 3-(4-(1-(((7,7-dimethyl-5-phenyl-4,5,6,7-tetrahydropyrazolo[1,5-a]pyrimidin-3-yl)carbonyl)amino)-1-ethyl-propyl)phenyl)propanoate]
244 to 246 | CCC(CC)(NC(=O)c1c(C)nn2c1NC(c1ccccc1)CC2(C)C)c1ccc(C(=O)O)cc1 (stereo not shown) [Example 979, 4-(1-ethyl-1-(((2,7,7-trimethyl-5-phenyl-4,5,6,7-tetrahydropyrazolo[1,5-a]pyrimidin-3-yl)carbonyl)amino)propyl) benzoic acid]
290 to 291 | O=C(NC1(C(=O)N2CCOCC2)CCCCC1)c1cnn2c1N[C@H](c1ccccc1)C[C@@H]2C(F)(F)F [Example 370]
